Test: Absorbance of nanoparticles in the near-infrared region (UV-vis spectrometer)
Type: physicochemical
Details: control solutions without DOPA-metal complex
Description: Absorbances in the near-infrared region of the FeMAP NPs and VMAP NPs prepared in Example 1-3 were analyzed through a UV-vis spectrometer, and the analysis results are shown in FIG. 4.

Row | SMILES | absorbance, absorption spectrum 500 nm to 900 nm
1 | [Cl][Fe]([Cl])[Cl] [FeCl3] | almost no absorbance
2 | [Cl][V]([Cl])[Cl] [VCl3] | almost no absorbance
